We go through 23 compounds from EPA's ToxValDB 9.5.

For orientation: NOAEL means the highest dose or exposure tested at which no adverse effect was seen. A word on the LOAEL: it is the lowest tested level that showed an adverse finding.

In one data set the test system is Canidae. Particulars: for NOEL / LEL: Dog Other.
For the next data set, the system named is Pontoscolex corethrurus. Particulars: acute; mortality.
The subject of a further data set is Apis mellifera. Particulars: acute, mortality.
Setting [1] is: chronic, duration: 2 years, oral, diet.
Where [2] appears, read: short-term, duration: 28 days, mortality.
Setting [3] is: subchronic, duration: 90 days, oral, diet, F, Not specified, clinical chemistry.

As for `[Ca+2].[I-].[I-].[O-2].[O-2].[O-2].[O-2].[O-2].[O-2]` [Iodic acid (HIO3), calcium salt (2:1)], the LEL in the data set on Sus scrofa (repeat dose other, Not specified, no effects) came out at 8 mg/kg-day; in the data set on Sus scrofa (short-term, Not specified, no effects) it was 8 mg/kg-day; in the data set on Gallus gallus (repeat dose other, no effects), 5 mg/kg-day; in the data set with Gallus gallus (subchronic, duration: 35 days, oral, diet, M, no effects), 5 mg/kg-day.

In turn, `CC(C)O` [Isopropanol] yielded an NOAEL with Oryctolagus sp. (reproduction developmental, duration: 13 days, oral, gavage, F, New Zealand, mortality) of 240 mg/kg-day.

As to `Cc1ccc(C(C)C)cc1O` [Isopropyl-o-cresol], the LEL in the data set on Sus scrofa (subchronic, duration: 6 weeks, oral, diet, M/F, Not specified, no effects) amounted to 2000 mg/kg-day.

For `CC(C)C1C2CCC1c1c(NC(=O)c3cn(C)nc3C(F)F)cccc12` (stereo not given) [Isopyrazam], the LD50 was 2000 mg/kg-day in the data set with Rattus norvegicus (acute, oral, mortality) and over 2000 mg/kg-day in the data set on Colinus virginianus (acute, oral, mortality). In addition, the NOEL in the data set on Rattus norvegicus (chronic) was 41 mg/kg-day. Also, in the data set with Rattus norvegicus (chronic, duration: 2 years, organ weight), the LOAEL was found to be 5.5 mg/kg-day. The NOAEL turned out to be 20 mg/kg-day with Rattus norvegicus (developmental, development) and 8 mg/kg-day with Rattus norvegicus (reproduction developmental, duration: 2 years, body weight). This compound also displayed an LC50 in the data set with Colinus virginianus (acute, oral, diet, mortality) of 1310 mg/kg-day. In the data set on Colinus virginianus (reproduction developmental), this compound displayed an NOEC of 32.5 mg/kg-day.

In the case of `CS(=O)(=O)c1cc(C(F)(F)F)ccc1C(=O)c1cnoc1C1CC1` [Isoxaflutole], the NOAEL amounted to 2 mg/kg-day in the data set with Rattus norvegicus (chronic, duration: 2 years, histopathology: nonneoplastic); 2 mg/kg-day with Rattus norvegicus (reproduction developmental, organ weight); 5 mg/kg-day in the data set on Oryctolagus sp. (developmental, development).

Consider `CCCCCCCCCCCCN(C)C` [N,N-Dimethyldodecan-1-amine], for which the no-observed-adverse-effect level (NOAEL) in the data set with Rattus norvegicus (setting [1]) was found to be 50 mg/kg-day, the NOAEL in the data set on Rattus norvegicus (setting [2]) turned out to be 50 mg/kg-day and the NOAEL (reproduction developmental) was 50 mg/kg-day.

In the data set with Gallus gallus (subchronic, duration: 35 days, oral, diet, hematological), `NC(N)=NCC(=O)O` [N-(Aminoiminomethyl)glycine] showed an LEL of 1500 mg/kg-day.

Take `CN1CCCC1` [N-Methylpyrrolidine]: the NOAEL in the data set with Rattus norvegicus (setting [1]) worked out at 50 mg/kg-day, the NOAEL in the data set with Rattus norvegicus (setting [2]) was determined as 50 mg/kg-day and the NOAEL (reproduction developmental) stood at 50 mg/kg-day.

Compound `CCCCCCCCC(=O)NCc1ccc(O)c(OC)c1` [N-Vanillylnonanamide] came in with an NOAEL in the data set on Rattus norvegicus (subchronic, duration: 90 days, oral, M/F) of 8.4 mg/kg-day. Also, the NOEL (repeat dose other) is 8.4 mg/kg-day.

`COC(=O)[C@H](Cc1ccccc1)NC(=O)[C@H](CC(=O)O)NCCC(C)(C)C` [Neotame] displayed an NOAEL with Canidae (chronic, duration: 52 weeks, oral, diet, M/F, Beagle, clinical chemistry) of 200 mg/kg-day.

In the case of `O=[N+]([O-])[O-]` [Nitrate], the NOEL with Rattus norvegicus (chronic, duration: 2 years, growth) amounted to 370 mg/kg-day; in the data set on Canidae (chronic, duration: 125 days, growth), 370 mg/kg-day. In the data set with Sus scrofa (subchronic, duration: 84 days, Not specified, no effects), this compound gave an NOAEL of 410 mg/kg-day.

In the data set with Sus scrofa (setting [3]), `C[C@@H]1Cc2c(Cl)cc(C(=O)N[C@@H](Cc3ccccc3)C(=O)O)c(O)c2C(=O)O1` [Ochratoxin A] gave an LOAEL of 0.008 mg/kg-day and an LOEL of 0.008 mg/kg-day. For the same compound, the LEL in the data set with Gallus gallus (repeat dose other, oral, diet, organ weight) stood at 0.5 mg/kg-day. The same compound came in with an LEL in the data set on Canidae (short-term, duration: 14 days, histopathology: nonneoplastic) of 0.2 mg/kg-day.

In the case of `NC[C@@H]1O[C@H](O[C@H]2[C@@H](O)[C@H](O[C@@H]3[C@@H](O)[C@H](N)C[C@H](N)[C@H]3O[C@H]3O[C@H](CO)[C@@H](O)[C@H](O)[C@H]3N)O[C@@H]2CO)[C@H](N)[C@@H](O)[C@@H]1O.O=S(=O)(O)O` [Paromomycin sulfate], the NOEL in the data set with Canidae (chronic, oral) worked out at 3.4 mg/kg-day.

As for `CCc1ncc(C)nc1CC` [Pyrazine, 2,3-diethyl-5-methyl-], in the data set on Pontoscolex corethrurus, the LC50 worked out at 228 mg/kg.

Compound `CCc1nccnc1OC` [Pyrazine, 2-ethyl-3-methoxy-] returned an LC50 with Pontoscolex corethrurus of 243 mg/kg.

`CC1=C(C=O)C(C)(C)CC=C1` [Safranal] displayed an NOEL in the data set on Rattus norvegicus (subchronic, duration: 90 days) of 10 mg/kg-day. Moreover, the LEL is 120 mg/kg-day in the data set on Rattus norvegicus (subchronic, duration: 90 days, oral, gavage, F, no effects) and 120 mg/kg-day with Canidae (subchronic, duration: 90 days, no effects).

For the compound `O=C([O-])c1ccccc1.[Na+]` [Sodium benzoate], the LEL with Sus scrofa (repeat dose other, oral, diet, M/F, Not specified, no effects) is 36000 mg/kg-day; in the data set on Sus scrofa (subchronic, duration: 36 days, oral, diet, Duroc, body weight) it was 36000 mg/kg-day; in the data set with Sus scrofa (subchronic, duration: 42 days, oral, diet, Not specified, body weight) it was 36000 mg/kg-day.

As for `CC(c1ccc(C(F)(F)F)nc1)S(C)(=O)=NC#N` (stereo not given) [Sulfoxaflor], the LD50 in the data set on Apis mellifera (duration: 48 hours, oral, unspecified) came to 0.146 µg/piece; in the data set with Apis mellifera (duration: 72 hours, dermal), 0.397 µg/piece.

Consider `CCc1nc(C)cs1` [Thiazole, 2-ethyl-4-methyl-], for which the LC50 with Pontoscolex corethrurus was 193 mg/kg.

Compound `O=C(O)C(O)Cn1cncn1` (stereo not given) [Triazole lactic acid] showed an NOAEL in the data set on Oryctolagus sp. (developmental, development) of 30 mg/kg-day.

On to `CCCC(CCC)C(=O)O` [Valproic acid], for which the NOAEL (repeat dose other, development) worked out at 600 mg/kg-day.

Take `Cc1c(C)c2c(c(C)c1OC(=O)CCC(=O)O)CC[C@@](C)(CCC[C@H](C)CCC[C@H](C)CCCC(C)C)O2` [d-alpha-Tocopheryl succinate]: the NOAEL in the data set on Rattus norvegicus (subchronic, duration: 90 days, clinical chemistry) came to 265 mg/kg-day.

`NCCS(=O)(=O)O` [l-Taurine] yielded an NOAEL with Rattus norvegicus (subchronic, duration: 13 weeks, oral, gavage, M/F, Crj:CD, no effects) of 1000 mg/kg-day.
